Experimental findings from PubChem BioAssay AID248 (DTP/NCI, 2004) are described below.

The structures appear in SMILES notation. Where “and” joins values, the source holds several entries; their conditions need not be identical. Equal entries are not always repeated. Inconclusive results and toxic doses are left out.

This assay concerns L1210 leukemia ip in BDF1 mice, survival T/C. Nature of the assay: NCI In Vivo Anticancer Drug Screen. Data for tumor model L1210 Leukemia (intraperitoneal) in B6D2F1 (BDF1) mice. The note with it: endpoint: mean survival time, higher = longer survival. The method in brief:
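Mice bearing the transplanted tumor received compound or vehicle. Survival of the treated group was divided by that of the vehicle-treated control group to give the ratio.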

[1] abbreviates: dose: 50.0 mg/kg/injection, schedule: Q01DX001 (ip), vehicle: Klucel (hydroxypropylcellulose) (HPC).
The mark [2] stands for this setting: dose: 100.0 mg/kg/injection, schedule: Q01DX001 (ip), vehicle: Klucel (hydroxypropylcellulose) (HPC).
Setting [3] is: dose: 200.0 mg/kg/injection, schedule: Q01DX001 (ip), vehicle: Klucel (hydroxypropylcellulose) (HPC).
The mark [4] stands for this setting: dose: 100.0 mg/kg/injection, schedule: Q01DX001 (ip), vehicle: saline.
Setting [5] is: dose: 200.0 mg/kg/injection, schedule: Q01DX001 (ip), vehicle: saline.
Setting [6] is: dose: 400.0 mg/kg/injection, schedule: Q01DX001 (ip), vehicle: saline.
[7] abbreviates: dose: 100.0 mg/kg/injection, schedule: Q01DX009 (ip), vehicle: saline with Tween-80.
[8] abbreviates: dose: 100.0 mg/kg/injection, schedule: Q04DX003 (ip), vehicle: saline with Tween-80.
[9] abbreviates: dose: 200.0 mg/kg/injection, schedule: Q01DX009 (ip), vehicle: saline with Tween-80.
[10] abbreviates: dose: 200.0 mg/kg/injection, schedule: Q04DX003 (ip), vehicle: saline with Tween-80.
[11] abbreviates: dose: 400.0 mg/kg/injection, schedule: Q04DX003 (ip), vehicle: saline with Tween-80.
Setting [12] is: dose: 100.0 mg/kg/injection, schedule: Q01DX009 (ip), vehicle: Klucel (hydroxypropylcellulose) (HPC).
[13] abbreviates: dose: 200.0 mg/kg/injection, schedule: Q01DX009 (ip), vehicle: Klucel (hydroxypropylcellulose) (HPC).

For `O=C(Nc1ccc(Oc2ccc(NC(=O)Nc3cccc(F)c3)cc2)cc1)Nc1cccc(F)c1`, the T/C (dose: 25.0 mg/kg/injection, schedule: Q01DX009 (ip), vehicle: carboxymethylcellulose (CMC)) is 89 % of control and 90 % of control; the T/C (dose: 50.0 mg/kg/injection, schedule: Q01DX009 (ip), vehicle: carboxymethylcellulose (CMC)) is 86 % of control and 87 % of control; the T/C (dose: 100.0 mg/kg/injection, schedule: Q01DX001 (ip), vehicle: carboxymethylcellulose (CMC)) is 93 % of control and 94 % of control; the T/C (dose: 100.0 mg/kg/injection, schedule: Q01DX009 (ip), vehicle: carboxymethylcellulose (CMC)) was 100 % of control and 106 % of control and 86 % of control; the T/C (dose: 100.0 mg/kg/injection, schedule: Q04DX002 (ip), vehicle: carboxymethylcellulose (CMC)) was 97 % of control and 99 % of control; the T/C (dose: 100.0 mg/kg/injection, schedule: Q04DX003 (ip), vehicle: carboxymethylcellulose (CMC)) was 94 % of control and 105 % of control. Moreover, the T/C is, setting by setting: (dose: 200.0 mg/kg/injection, schedule: Q01DX001 (ip), vehicle: carboxymethylcellulose (CMC)) 96 % of control and 105 % of control; (dose: 200.0 mg/kg/injection, schedule: Q01DX009 (ip), vehicle: carboxymethylcellulose (CMC)) 99 % of control; (dose: 200.0 mg/kg/injection, schedule: Q04DX002 (ip), vehicle: carboxymethylcellulose (CMC)) 95 % of control and 108 % of control; (dose: 200.0 mg/kg/injection, schedule: Q04DX003 (ip), vehicle: carboxymethylcellulose (CMC)) 94 % of control and 92 % of control; (dose: 400.0 mg/kg/injection, schedule: Q01DX001 (ip), vehicle: carboxymethylcellulose (CMC)) 96 % of control and 91 % of control; (dose: 400.0 mg/kg/injection, schedule: Q01DX009 (ip), vehicle: carboxymethylcellulose (CMC)) 93 % of control. The T/C by setting is: (dose: 400.0 mg/kg/injection, schedule: Q04DX002 (ip), vehicle: carboxymethylcellulose (CMC)) 95 % of control and 89 % of control; (dose: 400.0 mg/kg/injection, schedule: Q04DX003 (ip), vehicle: carboxymethylcellulose (CMC)) 91 % of control and 92 % of control.

Regarding `O=[N+]([O-])c1ccc(C2=NC(c3ccccc3)CO2)cc1` (centres undefined), the T/C runs as follows: under setting [1], 96 % of control; under setting [2], 112 % of control; under setting [3], 94 % of control.

Regarding `O=C(O)C(O)C(=O)O`, the T/C by setting is: (dose: 50.0 mg/kg/injection, schedule: Q01DX009 (ip), vehicle: saline) 95 % of control; (dose: 100.0 mg/kg/injection, schedule: Q01DX009 (ip), vehicle: saline) 89 % of control; (dose: 100.0 mg/kg/injection, schedule: Q04DX003 (ip), vehicle: saline) 103 % of control; (dose: 200.0 mg/kg/injection, schedule: Q01DX009 (ip), vehicle: saline) 92 % of control; (dose: 200.0 mg/kg/injection, schedule: Q04DX003 (ip), vehicle: saline) 100 % of control.

`O=C1/C(=C\c2ccc(Cl)c(Cl)c2)N2CCC1CC2`: the T/C (dose: 100.0 mg/kg/injection, schedule: Q04DX002 (ip), vehicle: Klucel (hydroxypropylcellulose) (HPC)) was 96 % of control; the T/C (dose: 200.0 mg/kg/injection, schedule: Q04DX002 (ip), vehicle: Klucel (hydroxypropylcellulose) (HPC)) was 104 % of control; the T/C (dose: 400.0 mg/kg/injection, schedule: Q04DX002 (ip), vehicle: Klucel (hydroxypropylcellulose) (HPC)) is 114 % of control.

For the compound `CC(=O)Nc1cccc(-c2ccccc2Cl)c1`, the T/C is, setting by setting: under setting [4], 93 % of control; under setting [5], 96 % of control; under setting [6], 98 % of control.

For `CC1CCCCC12OCCO2` (centres undefined), the T/C under setting [7] is 97 % of control; the T/C under setting [8] was 101 % of control; the T/C under setting [9] is 91 % of control; the T/C under setting [10] was 93 % of control; the T/C under setting [11] was 97 % of control.

Take `CN(C(=O)Nc1ccccc1F)C1CCCCC1`: the T/C is 101 % of control (dose: 50.0 mg/kg/injection, schedule: Q01DX009 (ip), vehicle: Klucel (hydroxypropylcellulose) (HPC)); 90 % of control under setting [12]; 96 % of control under setting [13].

For `CC1(C)SC2C(NC(=O)COc3ccccc3)C(=O)N2C1C(=O)O` (centres undefined) (tested in a mixture with another compound), the T/C under setting [8] was 101 % of control, the T/C under setting [10] is 103 % of control and the T/C under setting [11] was 97 % of control.

For the compound `O=NN(CCCl)C(=O)N[C@@H]1CCCC[C@H]1O`, the T/C is 106 % of control (dose: 1.6 mg/kg/injection, schedule: Q01DX001 (ip), vehicle: saline with Tween-80); 116 % of control (dose: 2.4 mg/kg/injection, schedule: Q01DX001 (ip), vehicle: saline with Tween-80); 183 % of control (dose: 5.4 mg/kg/injection, schedule: Q01DX001 (ip), vehicle: saline with Tween-80); 302 % of control (dose: 6.0 mg/kg/injection, schedule: Q01DX001 (ip), vehicle: saline with Tween-80); 441 % of control (dose: 8.0 mg/kg/injection, schedule: Q01DX001 (ip), vehicle: saline with Tween-80); 492 % of control (dose: 9.0 mg/kg/injection, schedule: Q01DX001 (ip), vehicle: saline with Tween-80). In addition, the T/C by setting is: (dose: 12.0 mg/kg/injection, schedule: Q01DX001 (ip), vehicle: saline with Tween-80) 441 % of control and 468 % of control; (dose: 13.0 mg/kg/injection, schedule: Q01DX001 (ip), vehicle: saline with Tween-80) 505 % of control; (dose: 18.0 mg/kg/injection, schedule: Q01DX001 (ip), vehicle: saline with Tween-80) 441 % of control; (dose: 20.0 mg/kg/injection, schedule: Q01DX001 (ip), vehicle: saline with Tween-80) 505 % of control; (dose: 26.0 mg/kg/injection, schedule: Q01DX001 (ip), vehicle: saline with Tween-80) 166 % of control; (dose: 30.0 mg/kg/injection, schedule: Q01DX001 (ip), vehicle: saline with Tween-80) 195 % of control.

For `Cc1ccccc1S(=O)(=O)NSc1ccccc1[N+](=O)[O-]`, the T/C was 101 % of control (dose: 75.0 mg/kg/injection, schedule: Q01DX001 (ip), vehicle: other); 95 % of control (dose: 150.0 mg/kg/injection, schedule: Q01DX001 (ip), vehicle: other); 95 % of control (dose: 300.0 mg/kg/injection, schedule: Q01DX001 (ip), vehicle: other).

As for `Nc1cccc(OCCCCOc2cccc(N)c2)c1`, the T/C is, setting by setting: (dose: 50.0 mg/kg/injection, schedule: Q01DX009 (ip), vehicle: saline with Tween-80) 93 % of control; under setting [7], 101 % of control; under setting [9], 107 % of control.

With `[Cl][Hg][Cl].c1ccc(N=P(c2ccccc2)(c2ccccc2)c2ccccc2)cc1`, the T/C runs as follows: (dose: 9.38 mg/kg/injection, schedule: Q01DX001 (ip), vehicle: other) 96 % of control; (dose: 18.75 mg/kg/injection, schedule: Q01DX001 (ip), vehicle: other) 102 % of control.

For the compound `CCc1ccccc1OS(=O)(=O)c1ccc([N+](=O)[O-])cc1`, the T/C is, setting by setting: under setting [12], 109 % of control; (dose: 100.0 mg/kg/injection, schedule: Q04DX003 (ip), vehicle: Klucel (hydroxypropylcellulose) (HPC)) 92 % of control; under setting [13], 102 % of control; (dose: 200.0 mg/kg/injection, schedule: Q04DX003 (ip), vehicle: Klucel (hydroxypropylcellulose) (HPC)) 100 % of control; (dose: 400.0 mg/kg/injection, schedule: Q01DX009 (ip), vehicle: Klucel (hydroxypropylcellulose) (HPC)) 102 % of control; (dose: 400.0 mg/kg/injection, schedule: Q04DX003 (ip), vehicle: Klucel (hydroxypropylcellulose) (HPC)) 100 % of control.

With `O=C(CCCC(=O)NNC(=O)Nc1ccc(Cl)cc1)NNC(=O)Nc1ccc(Cl)cc1`, the T/C (dose: 50.0 mg/kg/injection, schedule: Q01DX001 (ip), vehicle: saline) was 93 % of control; the T/C under setting [4] is 96 % of control; the T/C under setting [5] is 100 % of control; the T/C under setting [6] was 100 % of control.

With `CN(C)/C=C(\C#N)C=O`, the T/C was 103 % of control (dose: 75.0 mg/kg/injection, schedule: Q01DX001 (ip), vehicle: saline) and 101 % of control (dose: 150.0 mg/kg/injection, schedule: Q01DX001 (ip), vehicle: saline).

Regarding `Cc1cccc(NC(=O)C2CCC(CC3CCCCC3)CC2)c1` (centres undefined), the T/C runs as follows: under setting [1], 89 % of control; under setting [2], 89 % of control; under setting [3], 87 % of control.
